Data taken from paper PMC9962305, “A Highly Expressed Antennae Odorant-Binding Protein Involved in Recognition of Herbivore-Induced Plant Volatiles in Dastarcus helophoroides” (International Journal of Molecular Sciences, 2023).
Entries after “also recorded” stand apart in the source; their conditions may differ. Where two headings read alike, the source gives them in different places.

Legend:
recombinant DhelOBP5 = recombinant DhelOBP5 (Dastarcus helophoroides, UniProt A0A1I9HZP1); experiment: Fluorescence competitive binding assay (1-NPN probe); conditions: DhelOBP5, pH 7.4; for IC50: read-out: IC50, ligand concentration displacing 50% of the fluorescence intensity of the DhelOBPs/1-NPN complex
Chain of recombinant DhelOBP5 (A0A1I9HZP1 entry or part of it): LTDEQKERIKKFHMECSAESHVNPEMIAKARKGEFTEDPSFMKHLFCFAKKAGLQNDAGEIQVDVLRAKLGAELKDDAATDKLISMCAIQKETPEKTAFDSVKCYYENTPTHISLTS
Method: (§1) Purified proteins were dissolved in 30 mM Tris-HCl buffer (pH 7.4 and 5.0), and emission fluorescence spectra were recorded on an RF-5301PC fluorescence spectrophotometer (Shimadzu, Kyoto, Japan) at room temperature in a right-angle configuration with a 1-cm light path quartz cuvette. To measure the affinity of the fluorescent probe 1-NPN with the target proteins, a […] solution of protein in 30 mM Tris-HCL (pH 7.4 and 5.0) was titrated with aliquots of 1 mM 1-NPN to final concentrations ranging from 0 to the approaching saturation. The probe 1-NPN was excited at 337 nm, and the emission spectra were recorded between 350 and 500 nm. The binding affinities of other ligands were measured using 1-NPN (2 μM) as the fluorescent probe with a stoichiometry of 1:1 (protein: probe), with the final concentration of each ligand ranging from 0 to 20 μM. All ligands, including 1-NPN were purchased from Sigma-Aldrich (St Louis, MO, USA) and TCI Shanghai (Shanghai, China) and dissolved in chromatogram class methanol (Aladdin, Shanghai, China).
(§2) The dissociation constants (Kd) of DhelOBPs with 1-NPN were calculated from Scatchard plots of the binding data using PRISM 8.0 software (GraphPad, La Jolla, CA, USA). Binding affinities (Ki) of DhelOBPs for each ligand were calculated based on the IC50 value (the initial fluorescence level of the competitor concentration reduced by half) using the equation: Ki=IC50/(1+1-NPN/K1-NPN) , where [1-NPN] is the free concentration of 1-NPN, and K1-NPN is the dissociation constant of the complex OBP/1-NPN. The analysis supposes that there is only one protein binding site, which is 100% active, and that the binding is reversible and at an equilibrium.

recombinant DhelOBP20 = recombinant DhelOBP20 (Dastarcus helophoroides, UniProt A0A1I9HZP8); experiment: as above; conditions: DhelOBP20, pH 7.4; for IC50: read-out: IC50, ligand concentration displacing 50% of the fluorescence intensity of the DhelOBPs/1-NPN complex
Chain of recombinant DhelOBP20 (A0A1I9HZP8 entry or part of it): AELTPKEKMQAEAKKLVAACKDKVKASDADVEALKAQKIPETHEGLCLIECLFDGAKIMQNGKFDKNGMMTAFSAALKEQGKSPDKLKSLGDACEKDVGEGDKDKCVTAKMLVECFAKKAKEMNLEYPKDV
Method: as §1, §2

recombinant DhelOBP14 = recombinant DhelOBP14 (Dastarcus helophoroides, UniProt A0A1I9HZQ7); experiment: as above; conditions: DhelOBP14, pH 7.4; for IC50: read-out: IC50, ligand concentration displacing 50% of the fluorescence intensity of the DhelOBPs/1-NPN complex
Chain of recombinant DhelOBP14 (A0A1I9HZQ7 entry or part of it): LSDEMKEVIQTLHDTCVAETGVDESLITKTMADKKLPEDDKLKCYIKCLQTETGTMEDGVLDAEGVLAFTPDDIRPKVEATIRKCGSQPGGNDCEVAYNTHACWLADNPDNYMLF
Method: as §1, §2

recombinant DhelOBP6 = recombinant DhelOBP6 (Dastarcus helophoroides, UniProt A0A1I9HZP3); experiment: as above; conditions: DhelOBP6, pH 7.4; Scatchard plot; read-out: dissociation constant (Kd) bound to 1-NPN
Chain of recombinant DhelOBP6 (A0A1I9HZP3 entry or part of it): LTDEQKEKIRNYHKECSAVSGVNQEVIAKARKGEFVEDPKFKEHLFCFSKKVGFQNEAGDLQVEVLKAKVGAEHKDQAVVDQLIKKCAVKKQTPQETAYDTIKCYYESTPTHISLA
Method: as §1, §2

recombinant DhelOBP18 = recombinant DhelOBP18 (Dastarcus helophoroides, UniProt A0A1I9HZQ8); experiment: as above; conditions: DhelOBP18, pH 7.4; for IC50: read-out: IC50, ligand concentration displacing 50% of the fluorescence intensity of the DhelOBPs/1-NPN complex
Chain of recombinant DhelOBP18 (A0A1I9HZQ8 entry or part of it): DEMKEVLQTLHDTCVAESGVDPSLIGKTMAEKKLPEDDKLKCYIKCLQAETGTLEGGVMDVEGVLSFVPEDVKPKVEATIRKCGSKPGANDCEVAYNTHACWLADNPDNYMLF
Method: as §1, §2

recombinant DhelOBP4 = recombinant DhelOBP4 (Dastarcus helophoroides, UniProt A0A1I9HZP6); experiment: as above; conditions: for IC50: read-out: IC50, ligand concentration displacing 50% of the fluorescence intensity of the DhelOBPs/1-NPN complex; for Ki: calculated from IC50, read-out: Ki, dissociation constant
Chain of recombinant DhelOBP4 (A0A1I9HZP6 entry or part of it): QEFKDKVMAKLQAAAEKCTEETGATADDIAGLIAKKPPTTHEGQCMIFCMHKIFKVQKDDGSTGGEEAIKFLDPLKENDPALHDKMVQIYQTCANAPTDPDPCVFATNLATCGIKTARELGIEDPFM
Method: as §1, §2

[1] = system: D. helophoroides adults injected with dsGFP or dsDhelOBP4; experiment: RNAi-mediated Y-tube olfactometer bioassay; assay type: in vivo, Dastarcus helophoroides
Method: (§3) Y-tube olfactometer experiments were conducted to evaluate the behavioral response to HIPVs with the best binding affinities in darkness at approximately 25 ± 1 °C. The central tube was 15 cm long, and the two branching arms, each linked to one vial, were 12 cm long with a 75° angle between them. Twenty microliters of each chemical that had been diluted 1000 times by volume were added to a 1 × 1 cm filter paper in one of the vials, and 20 μL of liquid paraffin were dropped on the same size filter paper in the second vial as the blank control. An effective choice was recorded when adults crawled at least 5 cm into the arm within 1 min and stayed 30 s at least. After every five individuals, the two arms were exchanged to avoid position effects. After testing 10 individuals, the Y-tube olfactometer was cleaned with absolute ethanol and oven-dried at 150 °C for 2 h. Fifty adult D. helophoroides were analyzed in each treated group. The results were analyzed using the chi-square test. 50 male and 50 female adults of D. helophoroides were chosen on day 1–4 after eclosion. The two treated groups were: dsGFP-injected and dsRNA-injected. dsGFP (250 ng) or dsRNA (250 ng) was respectively injected into the thorax internode of the adults with a microinjector (World Precision Instruments Inc., Sarasota, FL, USA) under a microscope. The RNAi efficiency was detected using a qRT-PCR for seven consecutive days. Following behavioral response was evaluated using the Y-tube olfactometer.

D. helophoroides adults = experiment: Y-tube olfactometer bioassay; assay type: in vivo, Dastarcus helophoroides; conditions: female and male adults, 20 μL of chemical diluted 1000 times vs liquid paraffin, chi-square test
Method: as §3, with “test.” for “test. 50 male and 50 female adults of D. helophoroides were chosen on day 1–4 after eclosion. The two treated groups were: dsGFP-injected and dsRNA-injected. dsGFP (250 ng) or dsRNA (250 ng) was respectively injected into the thorax internode of the adults with a microinjector (World Precision Instruments Inc., Sarasota, FL, USA) under a microscope. The RNAi efficiency was detected using a qRT-PCR for seven consecutive days. Following behavioral response was evaluated using the Y-tube olfactometer.”

[2] = Scatchard plot, read-out: dissociation constant (Kd) bound to 1-NPN
[3] = female adults after injection of dsDhelOBP4
[4] = female and male adults after injection of dsGFP
[5] = male adults after injection of dsDhelOBP4

Structure (SMILES) | Kd (recombinant DhelOBP5; [2]) | Kd (recombinant DhelOBP20; [2]) | Kd (recombinant DhelOBP14; [2]) | Kd (recombinant DhelOBP6) | Kd (recombinant DhelOBP18; [2]) | Kd (recombinant DhelOBP4; DhelOBP4, pH 7.4, Scatchard plot, read-out: dissociation constant (Kd) bound to 1-NPN) | IC50 (recombinant DhelOBP5) | IC50 (recombinant DhelOBP20) | IC50 (recombinant DhelOBP14) | IC50 (recombinant DhelOBP18) | IC50 (recombinant DhelOBP4; DhelOBP4, pH 5.0) | IC50 (recombinant DhelOBP4; DhelOBP4, pH 7.4) | Ki (recombinant DhelOBP4; DhelOBP4, pH 7.4) | Behavioral response of D. helophoroides post-RNAi treatment [1, 3] | Behavioral response of D. helophoroides post-RNAi treatment [1, 4] | Behavioral response of D. helophoroides post-RNAi treatment [1, 5] | Behavioral response of D. helophoroides (D. helophoroides adults) | Behavioral response of D. helophoroides (D. helophoroides adults; listed as α-terpineol) | Behavioral response of D. helophoroides (D. helophoroides adults; listed as γ-terpinene)
c1ccc(Nc2cccc3ccccc23)cc1 [1-NPN, N-phenyl-1-naphthylamine, reference compound] | 41 µM | 5.13 µM | 17.4 µM | 120 µM | 1.23 µM | 22.4 µM |  |  |  |  |  |  |  |  |  |  |  |  | 
CC1=CC(=O)[C@H]2C[C@@H]1C2(C)C [(-)-Verbenone] |  |  |  |  |  |  | > 50 µM | > 50 µM | > 50 µM | > 50 µM | > 50 µM | > 20 µM |  |  |  |  |  |  | 
CC12CCC(CC1=O)C2(C)C (stereo not shown) [Camphor] |  |  |  |  |  |  | > 50 µM | > 50 µM | > 50 µM | > 50 µM | > 50 µM | 18 ± 2.4 µM | 16.6 ± 2.2 µM |  |  |  |  |  | 
CC12CCC(C1)C(C)(C)C2=O (stereo not shown) [Fenchone] |  |  |  |  |  |  | > 50 µM | > 50 µM | > 50 µM | > 50 µM | > 20 µM | > 20 µM |  |  |  |  |  |  | 
CC1=CCC(O)(C(C)C)CC1 (stereo not shown) [Terpinen-4-ol] |  |  |  |  |  |  | > 50 µM | > 50 µM | > 50 µM | > 50 µM | > 50 µM | > 20 µM |  |  |  |  |  |  | 
CC1=CCC(=C(C)C)CC1 [Terpinolene] |  |  |  |  |  |  | > 50 µM | > 50 µM | > 50 µM | > 50 µM | > 50 µM | 15.7 ± 1.8 µM | 14.5 ± 1.7 µM |  |  |  |  |  | 
Cc1ccc(C(C)C)cc1 [p-Cymene] |  |  |  |  |  |  | > 50 µM | > 50 µM | > 50 µM | > 50 µM | > 50 µM | 13 ± 0.9 µM | 12 ± 0.9 µM | significantly avoidant effects; also recorded: significant repellent response | identically attractive effects | no behavioral effects; also recorded: did not elicit a behavioral response | significantly attracted; also recorded: attractive effects |  | 
CC1=CC[C@@H](C(C)(C)O)CC1 [α-Terpineol] |  |  |  |  |  |  | > 50 µM | > 50 µM | > 50 µM | > 50 µM | > 50 µM | 10.4 ± 0.1 µM | 9.6 ± 0.1 µM |  |  |  | no behavioral effects | did not elicit a behavioral response | 
CC1=CCC(C(C)C)=CC1 [γ-Terpinene] |  |  |  |  |  |  | > 50 µM | > 50 µM | > 50 µM | > 50 µM | > 50 µM | 11 ± 0.3 µM | 10.1 ± 0.3 µM | significantly avoidant effects; also recorded: significant repellent response | identically attractive effects | no behavioral effects; also recorded: did not elicit a behavioral response | attractive effects |  | significantly attracted
